Experimental data as given in patent publication US20230147962A1, “FIBROBLAST ACTIVATION PROTEIN LIGANDS FOR TARGETED DELIVERY APPLICATIONS” (PHILOCHEM AG, priority 2020, published 2023).
*1 amine or outer side, *2 acyl side, *3 side chain or, on linkers, in order; H or OH if unused. Where a SMILES comes first, the peptide text is derived from it. The star is where a group is joined. Fluorescein(5-Mal) = O=C1OC2(c3ccc(O)cc3Oc3cc(O)ccc32)c2ccc(N3C(=O)CC(*)C3=O)cc21; X1 = N#C[C@@H]1CC(F)(F)CN1C(=O)CNC(=O)c1ccnc2c(N*)cccc12; Suc = O=C(CCC(=O)[*:2])[*:1]

Target: T1, mFAP (Mus musculus, UniProt P97321)
T1 sequence (P97321 1-761): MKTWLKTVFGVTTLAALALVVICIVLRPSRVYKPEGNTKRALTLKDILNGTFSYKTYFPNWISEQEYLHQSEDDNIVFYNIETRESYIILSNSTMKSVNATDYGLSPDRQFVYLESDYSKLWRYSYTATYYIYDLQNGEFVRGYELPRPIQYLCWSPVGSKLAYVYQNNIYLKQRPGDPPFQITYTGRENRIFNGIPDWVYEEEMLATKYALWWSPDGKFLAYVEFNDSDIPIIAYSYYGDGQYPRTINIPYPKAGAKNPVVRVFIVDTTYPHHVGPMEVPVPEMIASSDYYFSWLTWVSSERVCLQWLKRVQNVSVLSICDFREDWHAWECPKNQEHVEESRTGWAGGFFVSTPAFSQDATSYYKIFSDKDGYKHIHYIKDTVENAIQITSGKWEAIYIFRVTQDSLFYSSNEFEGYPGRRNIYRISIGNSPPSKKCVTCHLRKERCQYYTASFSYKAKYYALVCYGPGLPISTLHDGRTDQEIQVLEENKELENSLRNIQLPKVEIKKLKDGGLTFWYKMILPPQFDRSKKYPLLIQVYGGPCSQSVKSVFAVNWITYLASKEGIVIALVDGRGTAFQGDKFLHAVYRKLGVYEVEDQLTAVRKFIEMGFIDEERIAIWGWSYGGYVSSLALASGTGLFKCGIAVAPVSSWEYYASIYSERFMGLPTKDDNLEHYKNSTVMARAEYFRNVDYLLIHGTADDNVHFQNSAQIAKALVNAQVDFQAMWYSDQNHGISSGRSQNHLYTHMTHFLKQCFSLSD
Test: Chromatographic co-elution (PD-10) of ligand-protein complexes, mFAP
Type: binding, murine
Settings: PD-10 column, mFAP 5 μM
Experimental: A PD-10 column was pre-equilibrated with assay buffer (50 mM Tris, 100 mM NaCl, 1 mM EDTA, pH=7.4) prior to the loading of the complex. A mixture of different proteins (hFAP=2 μM, mFAP=5 μM) and conjugate 15 (100 nM) were incubated and loaded on the column. The mixture was flushed using the assay buffer. The flow through was collected in 96-well plates and the fluorescence intensity was measured immediately on a TECAN microtiter plate reader, monitoring the fluorescence at an excitation wavelength of 485 nm and an emission wavelength of 535 nm. The concentration of the proteins was estimated by measuring the absorbance at 280 nm using a Nanodrop 2000/2000c spectrophotometer.

## N#C[C@@H]1CC(F)(F)CN1C(=O)CNC(=O)c1ccnc2c(NC(=O)CCC(=O)N[C@@H](CC(=O)O)C(=O)N[C@@H](CCCCN)C(=O)N[C@@H](CC(=O)O)C(=O)N[C@@H](CSC3CC(=O)N(c4ccc5c(c4)C(=O)OC54c5ccc(O)cc5Oc5cc(O)ccc54)C3=O)C(=O)O)cccc12 (stereo partly drawn) [Conjugate 15, (2R,5S,8S,11S)-8-(4-aminobutyl)-5,11-bis(carboxymethyl)-16-((4-((2-((S)-2-cyano-4,4-difluoropyrrolidin-1-yl)-2-oxoethyl)carbamoyl)quinolin-8-yl)amino)-2-(((1-(3′,6′-dihydroxy-3-oxo-3H-spiro[isobenzofuran-1,9′-xanthen]-5-yl)-2,5-dioxopyrrolidin-3-yl)thio)methyl)-4,7,10,13,16-pentaoxo-3,6,9,12-tetraazahexadecanoic acid] ({X1-Suc}-DKDC(Fluorescein(5-Mal))-OH)
  complex formation with mFAP in PD-10 co-elution: stable complex is formed
